Measurements: patent US10294228B2, “Breathing control modulating compounds, and methods of making and using same” (NEURAD LTD., priority 2015, dated 2019)
Where a name gives a salt, the structure may show the parent alone.

Tested on: anesthetized rats
Test: Anesthetized rat spirometry screening assay (ventilatory activity, minute volume)
Format: in vivo
Details: increase in minute volume (VE); for change in vivo at 0.3 mg/kg: 0.3 mg/kg IV bolus, read-out: VE % Inc @ 0.3 mg/kg IV; for change in vivo at 3 mg/kg: 3.0 mg/kg IV bolus, read-out: VE % Inc @ 3.0 mg/kg IV
Method: Anesthetized rats provide a quick method of screening compounds for respiratory and cardiovascular activity.
Rats were initially anesthetized with 3% isoflurane (inhaled) and femoral artery and vein cannulas were surgically inserted. Once cannulated, the rats were transitioned to urethane anesthesia (1.5 g/kg; i.v.) and a tracheal cut-down was performed. After placing the tracheal cannula, it was connected to a pneumotachometer to record respiratory airflow from which respiratory rate (RR), tidal volume (VT), and their product minute volume (MV, also termed VE) were derived. After the surgical preparation was complete, animals were allowed to stabilize for 30 minutes while respiratory rate, tidal volume, minute volume, blood pressure and heart rate were recorded continuously. Arterial blood gases (ABG) were obtained from arterial blood collected from the femoral artery. ABG measurements were taken before and 6 minutes after vehicle and each dose of compound administered. Compounds being screened were administered via bolus injections through the venous cannula followed by a saline flush (total time of administration is approximately 30 seconds), and the animal was monitored for at least 6 minutes for changes in cardiovascular efforts. Compounds were prepared in formulations identified to ensure optimal solubility. As such, vehicle controls were matched for the formulation of each compound tested. Dosing of the compounds being screened was conducted at 0.1 and/or 0.3 mg/kg and/or 3 mg/kg The next dose was not administered until all cardiovascular and respiratory measures had returned to baseline levels. The positive control compounds used were N-[4,6-di-(n-propylamino)-[1,3,5]triazin-2-yl]-N,O-dimethyl-hydroxylamine or N-[2,6-di-(n-propylamino)-[1,3]pyrimidin-4-yl]-N,O-dimethyl-hydroxylamine (both administered at the end of each screening experiment (0.3 mg/kg dose) to validate the experiment and also to serve as a measure with which the compound being screened could be compared.
Data were analyzed by collecting cardiovascular and respiratory data in 30 second averages (BINs). Data were plotted 2 minutes before challenge and then 6 minutes after challenge.

Row | SMILES | change in vivo at 0.3 mg/kg [%] | change in vivo at 3 mg/kg [%]
1 | CNc1nc(NCC(C)(C)O)c2nc(NC)nc(NCc3ccccc3)c2n1 [Compound 44a, 1-(8-Benzylamino-2,6-bis-methylamino-pyrimido[5,4-d]pyrimidin-4-ylamino)-2-methyl-propan-2-ol Hydrochloride] | 122 | 132
2 | CCCNc1nc(NC)c2nc(NCCO)nc(NC)c2n1 [Compound 91, 2-(4,8-Bis-methylamino-6-propylamino-pyrimido[5,4-d]pyrimidin-2-ylamino)-ethanol] | 16 | –
3 | C=CCNc1nc(NC)c2nc(N(C)C[C@H](C)O)nc(NC)c2n1 [Compound 156, (S)-1-[(6-Allylamino-4,8-bis-methylamino-pyrimido[5,4-d]pyrimidin-2-yl)-methyl-amino]-propan-2-ol] | 16 | 97
4 | CCCNc1nc(NC)nc2c(NCC(O)CO)nc(NC)nc12 (stereo not shown) [Compound 75a, 3-(2,6-Bis-methylamino-8-propylamino-pyrimido[5,4-d]pyrimidin-4-ylamino)-propane-1,2-diol Hydrochloride] | 158 | 180
5 | CCNc1nc(NCC)c2nc(NC[C@H](C)O)nc(NCC)c2n1 [Compound 165, (S)-1-(4,6,8-Tris-ethylamino-pyrimido[5,4-d]pyrimidin-2-ylamino)-propan-2-ol] | 66 | 101
6 | C=CCNc1nc(NC)c2nc(NC[C@@H](C)O)nc(NC)c2n1 [Compound 145, (R)-1-(6-Allylamino-4,8-bis-methylamino-pyrimido[5,4-d]pyrimidin-2-ylamino)-propan-2-ol] | 47 | 156
7 | CCCNc1nc(NCC(F)(F)F)nc2c(NCC(C)(C)O)nc(NCC(F)(F)F)nc12 [Compound 34a, 2-Methyl-1-[8-propylamino-2,6-bis-(2,2,2-trifluoro-ethylamino)-pyrimido[5,4-d]pyrimidin-4-ylamino]-propan-2-ol Hydrochloride] | 2 | –
8 | CCCNc1nc(NC)nc2c(N[C@@H]3CCCC[C@H]3O)nc(NC)nc12 [Compound 85, (1R,2R)-2-(2,6-Bis-methylamino-8-propylamino-pyrimido[5,4-d]pyrimidin-4-ylamino)-cyclohexanol] | 69 | 83
9 | CC[C@H](C)Nc1nc(NC)c2nc(NCC(C)(C)O)nc(NC)c2n1 [Compound 103, 1-[6-((S)-sec-Butylamino)-4,8-bis-methylamino-pyrimido[5,4-d]-pyrimidin-2-ylamino]-2-methyl-propan-2-ol] | 5 | 99
10 | CCCNc1nc(NC)c2nc(N[C@H]3c4ccccc4C[C@@H]3O)nc(NC)c2n1 [Compound 125, (1S,2S)-1-(4,8-Bis-methylamino-6-propylamino-pyrimido[5,4-d]-pyrimidin-2-ylamino)-indan-2-ol] | 38 | 84
11 | CNc1nc(NCc2ccccc2)c2nc(NC)nc(NCCO)c2n1 [Compound 64a, 2-(8-Benzylamino-2,6-bis-methylamino-pyrimido[5,4-d]-pyrimidin-4-ylamino)-ethanol Hydrochloride] | 32 | 157
12 | CCCNc1nc(NC)nc2c(N[C@@H]3CCCC[C@@H]3O)nc(NC)nc12 [Compound 84, (1S,2R)-2-(2,6-Bis-methylamino-8-propylamino-pyrimido[5,4-d]pyrimidin-4-ylamino)-cyclohexanol] | 169 | 184
13 | CCCNc1nc(NC)c2nc(NCC(O)CO)nc(NC)c2n1 (stereo not shown) [Compound 121, 3-(4,8-Bis-methylamino-6-propylamino-pyrimido[5,4-d]pyrimidin-2-ylamino)-propane-1,2-diol] | 0 | 38
14 | CCCNc1nc(NC)nc2c(NC(C)(C)CO)nc(NC)nc12 [Compound 16a, 2-(2,6-Bis-methylamino-8-propylamino-pyrimido[5,4-d]-pyrimidin-4-ylamino)-2-methyl-propan-1-ol hydrochloride] | 80 | –
15 | CNc1nc(NCC(F)F)c2nc(NC)nc(NCCO)c2n1 [Compound 60a, 2-[8-(2,2-Difluoro-ethylamino)-2,6-bis-methylamino-pyrimido[5,4-d]-pyrimidin-4-ylamino]-ethanol Hydrochloride] | 15 | 119
16 | CNc1nc(NCC2CC2)c2nc(NC)nc(NCCO)c2n1 [Compound 54a, 2-[8-(Cyclopropylmethyl-amino)-2,6-bis-methylamino-pyrimido[5,4-d]pyrimidin-4-ylamino]-ethanol Hydrochloride] | 165 | –

Row | SMILES | change in vivo at 0.3 mg/kg [%] | change in vivo at 3 mg/kg [%]
17 | CC[C@@H](C)Nc1nc(NC)c2nc(NC[C@@H](C)O)nc(NC)c2n1 [Compound 100, (R)-1-[6-((R)-sec-Butylamino)-4,8-bis-methylamino-pyrimido[5,4-d]pyrimidin-2-ylamino]-propan-2-ol] | 33 | 139
18 | CCCNc1nc(NCC)c2nc(NC[C@@H](C)O)nc(NCC)c2n1 [Compound 169, (R)-1-(4,8-Bis-ethylamino-6-propylamino-pyrimido[5,4-d]-pyrimidin-2-ylamino)-propan-2-ol] | 113 | 142
19 | CCCNc1nc(NC)nc2c(N(C)CCO)nc(NC)nc12 [Compound 6a, 2-[(2,6-Bis-methylamino-8-propylamino-pyrimido[5,4-d]pyrimidin-4-yl)-methyl-amino]-ethanol hydrochloride] | 37 | –
20 | CCCNc1nc(NC)nc2c(N[C@H]3CCCC[C@@H]3O)nc(NC)nc12 [Compound 83, (1S,2S)-2-(2,6-Bis-methylamino-8-propylamino-pyrimido[5,4-d]pyrimidin-4-ylamino)-cyclohexanol] | 176 | 153
21 | CCCNc1nc(NC)c2nc(N[C@@H]3CCCC[C@H]3O)nc(NC)c2n1 [Compound 137, (1R,2R)-2-(4,8-Bis-methylamino-6-propylamino-pyrimido[5,4-d]pyrimidin-2-ylamino)-cyclohexanol] | 22 | 103
22 | CCC(O)CNc1nc(NC)c2nc(NCC3CC3)nc(NC)c2n1 (stereo not shown) [Compound 146, 1-[6-(Cyclopropylmethyl-amino)-4,8-bis-methylamino-pyrimido[5,4-d]pyrimidin-2-ylamino]-butan-2-ol] | 9 | 121
23 | CCCNc1nc(NC)nc2c(N[C@@H]3c4ccccc4C[C@@H]3O)nc(NC)nc12 [Compound 77, (1R,2S)-1-(2,6-Bis-methylamino-8-propylamino-pyrimido[5,4-d]-pyrimidin-4-ylamino)-indan-2-ol] | 135 | 170
24 | CNc1nc(NCCO)c2nc(NC)nc(NC)c2n1 [Compound 52a, 2-(2,6,8-Tris-methylamino-pyrimido[5,4-d]pyrimidin-4-ylamino)-ethanol Hydrochloride] | 26 | –
25 | CCCNc1nc(NCC(F)(F)F)nc2c(NCCO)nc(NCC(F)(F)F)nc12 [Compound 28a, 2-[8-propylamino-2,6-bis-(2,2,2-trifluoroethylamino)-pyrimido[5,4-d]pyrimidin-4-ylamino]ethanol hydrochloride] | 16 | –
26 | CNc1nc(NCCOC)c2nc(NC)nc(NCCO)c2n1 [Compound 56a, 2-[8-(2-Methoxy-ethylamino)-2,6-bis-methylamino-pyrimido[5,4-d]pyrimidin-4-ylamino]-ethanol Hydrochloride] | 2 | –
27 | CCCNc1nc(NC)nc2c(NC[C@@H](C)O)nc(NC)nc12 [Compound 14a, (R)-1-(2,6-Bis-methylamino-8-propylamino-pyrimido[5,4-d]pyrimidin-4-ylamino)-propan-2-ol Hydrochloride] | 88 | –
28 | CCCNc1nc(NC)c2nc(NC[C@@H](C)O)nc(NC)c2n1 [Compound 115, (R)-1-(4,8-Bis-methylamino-6-propylamino-pyrimido[5,4-d]pyrimidin-2-ylamino)-propan-2-ol] | 60 | 151
29 | CCCNc1nc(NC)nc2c(NC3Cc4ccccc4C3O)nc(NC)nc12 (racemic) [Compound 81, 2-(2,6-Bis-methylamino-8-propylamino-pyrimido[5,4-d]-pyrimidin-4-ylamino)-indan-1-ol] | 50 | 72
30 | CCCNc1nc(NC)c2nc(NC[C@H](C)O)nc(NC)c2n1 [Compound 113, (S)-1-(4,8-Bis-methylamino-6-propylamino-pyrimido[5,4-d]pyrimidin-2-ylamino)-propan-2-ol] | 111 | 190
31 | CCCNc1nc(NC)nc2c(NCC(C)O)nc(NC)nc12 (stereo not shown) [Compound 10a, 1-(2,6-Bis-methylamino-8-propylamino-pyrimido[5,4-d]-pyrimidin-4-ylamino)-propan-2-ol hydrochloride] | 93 | –
